Experiments:
Test in all cases: DSF 100 kinase selectivity screen;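 also: compound tested at 20 µM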
Type in all cases: binding
[1] = target: T1, ~100 representative kinases (Homo sapiens, UniProt P55201); details: Protein BRPF1; average of three replicates
T1 construct: Recombinant protein kinase domains with a concentration of 2 μM
T1 sequence (P55201 1-1214): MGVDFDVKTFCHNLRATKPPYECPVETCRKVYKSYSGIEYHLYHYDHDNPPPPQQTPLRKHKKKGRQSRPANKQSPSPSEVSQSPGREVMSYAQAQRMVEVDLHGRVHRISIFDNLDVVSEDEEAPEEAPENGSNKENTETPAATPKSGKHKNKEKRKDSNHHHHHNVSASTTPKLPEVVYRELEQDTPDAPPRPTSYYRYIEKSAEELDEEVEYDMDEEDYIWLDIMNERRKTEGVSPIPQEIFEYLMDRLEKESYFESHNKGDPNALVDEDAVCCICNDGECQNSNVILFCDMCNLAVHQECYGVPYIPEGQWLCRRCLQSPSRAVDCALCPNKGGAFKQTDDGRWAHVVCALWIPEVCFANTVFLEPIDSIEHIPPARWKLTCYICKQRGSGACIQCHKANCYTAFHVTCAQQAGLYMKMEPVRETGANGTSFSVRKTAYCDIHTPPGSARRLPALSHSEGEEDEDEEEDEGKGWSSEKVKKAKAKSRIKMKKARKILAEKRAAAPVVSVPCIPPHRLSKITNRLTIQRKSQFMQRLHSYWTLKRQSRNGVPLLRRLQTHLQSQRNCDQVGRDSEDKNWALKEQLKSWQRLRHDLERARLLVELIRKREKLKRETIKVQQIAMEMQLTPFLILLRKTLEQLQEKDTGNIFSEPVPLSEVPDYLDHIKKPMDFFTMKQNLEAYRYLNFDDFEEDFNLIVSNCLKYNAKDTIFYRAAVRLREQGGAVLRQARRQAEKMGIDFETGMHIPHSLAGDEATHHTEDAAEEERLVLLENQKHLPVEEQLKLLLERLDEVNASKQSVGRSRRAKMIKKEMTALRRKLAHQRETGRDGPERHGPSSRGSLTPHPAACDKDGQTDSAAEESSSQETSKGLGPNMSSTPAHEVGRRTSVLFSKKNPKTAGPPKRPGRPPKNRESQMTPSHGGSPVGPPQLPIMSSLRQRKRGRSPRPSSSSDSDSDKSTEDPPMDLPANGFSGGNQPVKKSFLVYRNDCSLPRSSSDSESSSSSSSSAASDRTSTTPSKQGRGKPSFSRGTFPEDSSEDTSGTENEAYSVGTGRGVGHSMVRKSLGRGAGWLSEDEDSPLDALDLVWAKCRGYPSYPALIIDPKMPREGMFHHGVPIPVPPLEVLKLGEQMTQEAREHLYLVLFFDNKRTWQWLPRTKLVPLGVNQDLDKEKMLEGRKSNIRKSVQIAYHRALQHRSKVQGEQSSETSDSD
Outline: (§1)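 Each kinase domain, at 2 μM, is mixed with 20 μM test compound and SYPRO Orange in Hepes (20 mM, pH 7.5) with 500 mM NaCl. Temperature is then raised at 3°C/min and fluorescence-monitored unfolding yields the melting temperature change, ΔTm in degrees Celsius.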

[2] = target: T2, ~100 representative kinases (Homo sapiens, UniProt P00519); details: Protein ABL1; average of three replicates
T2 construct: Recombinant protein kinase domains with a concentration of 2 μM
Outline: as §1

[3] = target: T3, ~100 representative kinases (Homo sapiens, UniProt Q8TDX7); details: protein NEK7; average of three replicates
T3 construct: Recombinant protein kinase domains with a concentration of 2 μM
Outline: as §1

[4] = target: T4, ~100 representative kinases (Homo sapiens, UniProt Q6PHR2); details: Protein ULK3; DSF; average of three replicates
T4 construct: Recombinant protein kinase domains with a concentration of 2 μM
T4 sequence (Q6PHR2 1-472): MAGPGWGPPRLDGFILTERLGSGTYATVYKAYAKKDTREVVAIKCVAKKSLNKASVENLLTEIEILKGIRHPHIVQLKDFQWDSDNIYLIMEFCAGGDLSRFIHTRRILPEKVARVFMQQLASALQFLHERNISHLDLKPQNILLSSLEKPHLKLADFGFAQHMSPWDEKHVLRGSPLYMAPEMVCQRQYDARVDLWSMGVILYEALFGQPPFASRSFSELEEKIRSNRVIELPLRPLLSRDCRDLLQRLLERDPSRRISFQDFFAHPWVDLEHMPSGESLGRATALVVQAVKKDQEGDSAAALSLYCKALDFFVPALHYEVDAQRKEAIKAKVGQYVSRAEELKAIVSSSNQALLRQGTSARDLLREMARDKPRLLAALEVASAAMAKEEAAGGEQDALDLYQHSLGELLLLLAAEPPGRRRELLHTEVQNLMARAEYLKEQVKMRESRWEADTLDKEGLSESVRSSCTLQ
Outline: as §1

[5] = target: T5, ~100 representative kinases (Homo sapiens, UniProt Q16539); details: protein MAPK14; average of three replicates
T5 construct: Recombinant protein kinase domains with a concentration of 2 μM
Outline: as §1

[6] = target: T6, ~100 representative kinases (Homo sapiens, UniProt P49761); details: Protein CLK3; average of three replicates
T6 construct: Recombinant protein kinase domains with a concentration of 2 μM
Outline: as §1

[7] = target: T7, ~100 representative kinases (Homo sapiens, UniProt P27448); details: protein MARK3; average of three replicates
T7 construct: Recombinant protein kinase domains with a concentration of 2 μM
Outline: as §1

[8] = target: T8, ~100 representative kinases (Homo sapiens, UniProt P11309); details: protein PIM1; average of three replicates
T8 construct: Recombinant protein kinase domains with a concentration of 2 μM
Outline: as §1

[9] = target: T9, ~100 representative kinases (Homo sapiens, UniProt Q13188); details: Protein STK3; DSF; average of three replicates
T9 construct: Recombinant protein kinase domains with a concentration of 2 μM
T9 sequence (Q13188 1-491): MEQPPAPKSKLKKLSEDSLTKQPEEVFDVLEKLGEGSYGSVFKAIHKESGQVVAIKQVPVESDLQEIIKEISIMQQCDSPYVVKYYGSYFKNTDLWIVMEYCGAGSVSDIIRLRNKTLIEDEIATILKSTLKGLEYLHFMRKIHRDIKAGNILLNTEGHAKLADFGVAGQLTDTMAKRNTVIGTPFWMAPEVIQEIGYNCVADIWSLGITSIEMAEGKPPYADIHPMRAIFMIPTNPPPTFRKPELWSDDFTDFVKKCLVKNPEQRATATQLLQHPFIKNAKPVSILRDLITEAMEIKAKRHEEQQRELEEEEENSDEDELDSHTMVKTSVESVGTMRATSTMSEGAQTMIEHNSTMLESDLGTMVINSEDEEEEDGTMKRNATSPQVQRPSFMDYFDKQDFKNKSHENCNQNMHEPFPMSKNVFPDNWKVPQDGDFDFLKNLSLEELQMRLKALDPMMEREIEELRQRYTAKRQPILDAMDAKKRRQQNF
Outline: as §1

T5 sequence (Q16539 whole entry, the tested form may be a part): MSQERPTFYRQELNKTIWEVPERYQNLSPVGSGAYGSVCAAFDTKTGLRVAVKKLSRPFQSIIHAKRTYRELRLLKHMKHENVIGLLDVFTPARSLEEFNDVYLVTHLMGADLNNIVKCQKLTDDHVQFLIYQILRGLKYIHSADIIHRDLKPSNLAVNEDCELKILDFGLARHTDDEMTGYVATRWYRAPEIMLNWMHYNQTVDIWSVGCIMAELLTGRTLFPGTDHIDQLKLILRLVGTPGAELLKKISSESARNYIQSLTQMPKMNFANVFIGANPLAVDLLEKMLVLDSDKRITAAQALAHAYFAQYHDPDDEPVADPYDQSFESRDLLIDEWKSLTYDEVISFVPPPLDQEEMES
T7 sequence (P27448 whole entry, the tested form may be a part): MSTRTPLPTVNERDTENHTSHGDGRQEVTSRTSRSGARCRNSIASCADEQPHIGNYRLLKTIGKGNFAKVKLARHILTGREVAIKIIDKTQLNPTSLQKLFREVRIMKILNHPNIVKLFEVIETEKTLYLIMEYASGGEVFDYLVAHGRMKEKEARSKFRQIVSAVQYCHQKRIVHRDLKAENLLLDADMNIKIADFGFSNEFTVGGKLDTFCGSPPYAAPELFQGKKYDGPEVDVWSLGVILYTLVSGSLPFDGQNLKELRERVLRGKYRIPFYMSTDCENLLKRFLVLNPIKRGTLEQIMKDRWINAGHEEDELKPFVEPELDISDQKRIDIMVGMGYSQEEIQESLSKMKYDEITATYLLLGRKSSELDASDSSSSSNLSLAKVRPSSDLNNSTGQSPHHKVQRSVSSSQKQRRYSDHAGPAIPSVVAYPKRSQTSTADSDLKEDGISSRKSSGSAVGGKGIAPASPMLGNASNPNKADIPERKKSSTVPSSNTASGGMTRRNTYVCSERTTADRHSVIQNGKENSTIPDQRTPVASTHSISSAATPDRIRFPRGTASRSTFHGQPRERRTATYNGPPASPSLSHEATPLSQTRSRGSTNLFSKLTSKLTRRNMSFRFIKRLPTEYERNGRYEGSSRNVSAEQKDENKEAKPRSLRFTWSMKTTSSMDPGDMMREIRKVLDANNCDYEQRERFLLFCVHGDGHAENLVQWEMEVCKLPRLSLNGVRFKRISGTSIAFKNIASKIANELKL
T8 sequence (P11309 whole entry, the tested form may be a part): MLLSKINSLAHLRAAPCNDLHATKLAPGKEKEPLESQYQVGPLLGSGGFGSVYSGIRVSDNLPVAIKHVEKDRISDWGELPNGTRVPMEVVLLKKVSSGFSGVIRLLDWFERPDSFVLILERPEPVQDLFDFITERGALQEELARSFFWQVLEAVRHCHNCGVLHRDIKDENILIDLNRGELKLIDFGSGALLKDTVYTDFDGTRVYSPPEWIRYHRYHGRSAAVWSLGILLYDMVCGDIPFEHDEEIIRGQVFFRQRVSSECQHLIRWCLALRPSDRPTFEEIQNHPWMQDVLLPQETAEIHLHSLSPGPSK
T2 sequence (P00519 whole entry, the tested form may be a part): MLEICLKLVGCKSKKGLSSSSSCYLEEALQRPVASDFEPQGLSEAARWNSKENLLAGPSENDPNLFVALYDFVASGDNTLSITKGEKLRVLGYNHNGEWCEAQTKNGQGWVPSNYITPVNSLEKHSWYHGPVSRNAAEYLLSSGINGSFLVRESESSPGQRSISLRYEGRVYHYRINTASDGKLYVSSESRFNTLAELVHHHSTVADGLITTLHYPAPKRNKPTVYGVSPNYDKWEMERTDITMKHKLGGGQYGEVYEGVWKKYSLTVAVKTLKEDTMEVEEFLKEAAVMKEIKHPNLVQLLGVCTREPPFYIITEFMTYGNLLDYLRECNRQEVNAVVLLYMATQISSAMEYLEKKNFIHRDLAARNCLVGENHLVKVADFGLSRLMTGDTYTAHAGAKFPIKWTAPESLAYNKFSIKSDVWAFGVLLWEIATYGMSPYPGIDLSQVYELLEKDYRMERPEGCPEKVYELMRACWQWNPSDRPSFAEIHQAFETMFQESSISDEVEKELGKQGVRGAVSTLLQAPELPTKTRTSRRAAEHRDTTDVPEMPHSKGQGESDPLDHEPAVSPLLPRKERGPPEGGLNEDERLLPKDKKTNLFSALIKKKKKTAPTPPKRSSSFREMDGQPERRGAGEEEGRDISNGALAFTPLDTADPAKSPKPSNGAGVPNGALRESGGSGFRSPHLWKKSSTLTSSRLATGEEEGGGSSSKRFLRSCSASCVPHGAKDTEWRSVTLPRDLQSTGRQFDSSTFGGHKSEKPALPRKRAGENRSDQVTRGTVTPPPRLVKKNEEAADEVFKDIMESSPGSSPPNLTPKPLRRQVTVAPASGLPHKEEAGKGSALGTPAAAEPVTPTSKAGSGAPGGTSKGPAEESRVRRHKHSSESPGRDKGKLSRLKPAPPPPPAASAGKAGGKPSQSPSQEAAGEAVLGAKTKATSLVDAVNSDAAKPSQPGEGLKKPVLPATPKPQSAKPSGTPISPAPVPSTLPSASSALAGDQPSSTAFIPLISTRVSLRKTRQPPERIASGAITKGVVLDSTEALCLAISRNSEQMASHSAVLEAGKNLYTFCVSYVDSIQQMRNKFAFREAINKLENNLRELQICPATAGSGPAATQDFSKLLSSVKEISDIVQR
T3 sequence (Q8TDX7 whole entry, the tested form may be a part): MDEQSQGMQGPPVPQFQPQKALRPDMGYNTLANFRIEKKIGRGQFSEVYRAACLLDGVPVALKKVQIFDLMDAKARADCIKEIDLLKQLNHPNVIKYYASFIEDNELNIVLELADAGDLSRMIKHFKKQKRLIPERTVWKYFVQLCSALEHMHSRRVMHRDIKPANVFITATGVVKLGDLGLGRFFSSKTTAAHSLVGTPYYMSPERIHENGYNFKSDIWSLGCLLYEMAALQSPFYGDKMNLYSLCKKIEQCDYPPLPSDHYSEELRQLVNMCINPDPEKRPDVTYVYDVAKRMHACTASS
T6 sequence (P49761 whole entry, the tested form may be a part): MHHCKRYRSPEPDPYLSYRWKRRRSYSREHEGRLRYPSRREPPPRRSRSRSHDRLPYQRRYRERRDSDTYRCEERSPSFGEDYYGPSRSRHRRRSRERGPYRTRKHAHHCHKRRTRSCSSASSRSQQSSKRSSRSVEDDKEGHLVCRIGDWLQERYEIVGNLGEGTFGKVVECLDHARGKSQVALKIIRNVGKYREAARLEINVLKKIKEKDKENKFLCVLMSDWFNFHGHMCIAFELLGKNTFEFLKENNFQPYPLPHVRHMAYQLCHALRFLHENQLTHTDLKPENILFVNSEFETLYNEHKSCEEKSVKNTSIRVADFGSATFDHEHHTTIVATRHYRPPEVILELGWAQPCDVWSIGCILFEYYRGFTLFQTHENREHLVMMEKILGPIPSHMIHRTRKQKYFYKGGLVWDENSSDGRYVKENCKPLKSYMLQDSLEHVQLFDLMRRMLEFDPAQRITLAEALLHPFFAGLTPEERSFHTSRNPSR

## Cc1cc(NC(=O)C2(C(=O)Nc3cccc(-c4c[nH]c5ncnc(N6CCOCC6)c45)c3)CC2)ccc1F [Compound 20]
[1]
  dTm: 0.26 K
[2]
  dTm: 2.29 K
[3]
  dTm: 0.98 K
[4]
  dTm: 10.21 K
[5]
  dTm: 1.97 K
[6]
  dTm: 5.99 K
[7]
  dTm: 8.85 K
[8]
  dTm: 5.73 K
[9]
  dTm: 10.06 K

## COc1cc(NC(=O)C2(C(=O)Nc3cccc(-c4c[nH]c5ncnc(N6CCOCC6)c45)c3)CC2)ccc1F [Compound 21]
[1]
  dTm: -0.32 K
[2]
  dTm: 1.21 K
[3]
  dTm: 0.39 K
[4]
  dTm: 8.22 K
[5]
  dTm: 0.76 K
[6]
  dTm: 3.11 K
[7]
  dTm: 6.63 K
[8]
  dTm: 3.07 K
[9]
  dTm: 8.44 K

## CC(C)(C)c1cccc(NC(=O)C2(C(=O)Nc3cccc(-c4c[nH]c5ncnc(N6CCOCC6)c45)c3)CC2)c1 [Compound 22]
[1]
  dTm: 1.91 K
[2]
  dTm: 2.30 K
[3]
  dTm: 0.18 K
[4]
  dTm: 11.44 K
[5]
  dTm: 0.60 K
[6]
  dTm: 4.17 K
[7]
  dTm: 4.89 K
[8]
  dTm: 4.89 K
[9]
  dTm: 9.61 K

## O=C(Nc1cccc(-c2c[nH]c3ncnc(N4CCOCC4)c23)c1)C1(C(=O)Nc2ccc(F)cc2F)CC1 [Compound 23]
[1]
  dTm: 0.18 K
[2]
  dTm: 1.35 K
[3]
  dTm: 0.03 K
[4]
  dTm: 8.50 K
[5]
  dTm: -0.38 K
[6]
  dTm: 1.58 K
[7]
  dTm: 4.65 K
[8]
  dTm: 0.61 K
[9]
  dTm: 6.69 K

## Cc1cc(F)ccc1NC(=O)C1(C(=O)Nc2cccc(-c3c[nH]c4ncnc(N5CCOCC5)c34)c2)CC1 [Compound 24]
[1]
  dTm: -0.10 K
[2]
  dTm: 1.15 K
[3]
  dTm: 0.20 K
[4]
  dTm: 7.53 K
[5]
  dTm: -0.59 K
[6]
  dTm: 0.69 K
[7]
  dTm: 4.53 K
[8]
  dTm: 0.58 K
[9]
  dTm: 6.63 K

## O=C(Nc1cccc(-c2c[nH]c3ncnc(N4CCOCC4)c23)c1)C1(C(=O)Nc2cc(Br)c(F)cc2F)CC1 [Compound 25]
[1]
  dTm: 1.93 K
[2]
  dTm: 1.76 K
[3]
  dTm: 0.26 K
[4]
  dTm: 9.25 K
[5]
  dTm: 2.03 K
[6]
  dTm: 2.08 K
[7]
  dTm: 3.00 K
[8]
  dTm: 2.04 K
[9]
  dTm: 4.96 K

## O=C(Nc1cccc(-c2c[nH]c3ncnc(N4CCOCC4)c23)c1)C1(C(=O)Nc2ccc(F)c(Br)c2F)CC1 [Compound 26]
[1]
  dTm: 1.97 K
[2]
  dTm: 1.83 K
[3]
  dTm: -0.33 K
[4]
  dTm: 7.33 K
[5]
  dTm: 2.01 K
[6]
  dTm: 3.24 K
[7]
  dTm: 3.94 K
[8]
  dTm: 1.29 K
[9]
  dTm: 5.86 K

## O=C(Nc1cc(F)cc(Br)c1)C1(C(=O)Nc2cccc(-c3c[nH]c4ncnc(N5CCOCC5)c34)c2)CC1 [Compound 27]
[1]
  dTm: 2.67 K
[2]
  dTm: 1.02 K
[3]
  dTm: -0.08 K
[4]
  dTm: 7.46 K
[5]
  dTm: 1.86 K
[6]
  dTm: 2.41 K
[7]
  dTm: 3.05 K
[8]
  dTm: 1.64 K
[9]
  dTm: 2.54 K

## CC(C)(C)c1cc(NC(=O)Nc2cccc(-c3c[nH]c4ncnc(N5CCOCC5)c34)c2)n(-c2ccc3ncccc3c2)n1 [Compound 28]
[1]
  dTm: 0.57 K
[2]
  dTm: 7.77 K
[3]
  dTm: 2.34 K
[4]
  dTm: 7.06 K
[5]
  dTm: 3.86 K
[6]
  dTm: 16.34 K
[7]
  dTm: 5.67 K
[8]
  dTm: 7.97 K
[9]
  dTm: 10.40 K

## Cc1ccc(-n2nc(C(C)(C)C)cc2NC(=O)Nc2cccc(-c3c[nH]c4ncnc(N5CCOCC5)c34)c2)cc1 [Compound 29]
[1]
  dTm: 0.08 K
[2]
  dTm: 10.07 K
[3]
  dTm: -0.81 K
[4]
  dTm: 7.43 K
[5]
  dTm: 5.90 K
[6]
  dTm: 14.57 K
[7]
  dTm: 2.95 K
[8]
  dTm: 3.53 K
[9]
  dTm: 10.79 K

## Cc1ccc(-n2nc(C(C)(C)C)cc2NC(=O)Nc2cccc(-c3c[nH]c4nc(Cl)nc(N5CCOCC5)c34)c2)cc1 [Compound 30]
[1]
  dTm: -1.99 K
[2]
  dTm: 2.41 K
[3]
  dTm: -1.05 K
[4]
  dTm: 0.27 K
[5]
  dTm: 2.81 K
[6]
  dTm: 3.71 K
[7]
  dTm: -0.48 K
[8]
  dTm: 1.31 K
[9]
  dTm: 5.14 K

## CC(=O)N1CCN(c2nc(Cl)nc3[nH]cc(-c4cccc(NC(=O)Nc5cc(C(C)(C)C)nn5-c5ccc(C)cc5)c4)c23)CC1 [Compound 31]
[1]
  dTm: -0.70 K
[2]
  dTm: 2.73 K
[3]
  dTm: -0.91 K
[4]
  dTm: 0.92 K
[5]
  dTm: 3.92 K
[6]
  dTm: 3.34 K
[7]
  dTm: -0.26 K
[8]
  dTm: 3.25 K
[9]
  dTm: 6.29 K

## CCSc1nc(NC)c2c(-c3cccc(NC(=O)Nc4cc(C(C)(C)C)nn4-c4ccc(C)cc4)c3)c[nH]c2n1 [Compound 32]
[1]
  dTm: -0.60 K
[2]
  dTm: 2.07 K
[3]
  dTm: -0.18 K
[4]
  dTm: 0.44 K
[5]
  dTm: 5.12 K
[6]
  dTm: 0.50 K
[7]
  dTm: 0.16 K
[8]
  dTm: 1.50 K
[9]
  dTm: 0.53 K

## COc1cc(C(=O)N2CCOCC2)c(F)cc1Nc1nc(N(C)C)c2c(Cl)c[nH]c2n1 [Compound 36]
[1]
  dTm: -1.63 K
[2]
  dTm: 1.16 K
[3]
  dTm: -0.65 K
[4]
  dTm: 4.06 K
[5]
  dTm: -0.75 K
[6]
  dTm: 2.75 K
[7]
  dTm: -1.24 K
[8]
  dTm: -0.51 K
[9]
  dTm: -0.64 K

Source: article PMC12136037, “Type II kinase inhibitors that target Parkinson’s disease–associated LRRK2” (Science Advances, 2025)
